Source: patent US7321002B2, “Chiral integrin modulators and methods of use thereof” (Billings Pharmaceuticals, Inc., priority 2000, dated 2008)

Legend:
[1] = test system: HIV-1RF-infected H9 cells; experiment: HIV-induced syncytium formation: fusion of intact H9 cells with HIV-1RF-infected H9 cells; format: cell-based; conditions: H9 + HIV-1RF-infected H9 cells, 6 to 15 hours at 37° C., FIG. 1
Description: For all the curves, the effect of ajoene enantiomers and enantiomer mixtures on the fusion of cultured, intact H9 cells with HIV-1RF-infected H9 cells is disclosed. The vertical graph axis expresses the maximum amount of syncytia formed in the absence of the compounds (100 percent), while the points on the curves represent percentages of such an amount of syncytia formed in the presence of varying concentrations of the compounds and compound mixtures (micromoles per liter).
Another such method is based on the inhibition of HIV-mediated syncytium formation, a phenomenon known to depend on the functional activity of integrins. The purified Z enantiomers, racemic E-ajoene, and the original 3:1 mixture of racemic Z- and E-ajoenes were taken up in DMSO at a concentration of 10 mg/mL. Dilutions were made in RPMI 1640 medium containing 10% fetal calf serum and 10 mM HEPES (cRPMW). HIV-1RF-infected H9 cells and uninfected H9 cells were washed with cRPMI and resuspended in cRPMI at a density of 4×10^6 per mL. Uninfected cells (50 μL) were mixed with serial dilutions of the compounds (100 μL) and incubated at 37° C. for30 minutes before adding and mixing 50 μL of infected H9 cells. The plates were incubated at 37° C. for 6 to 15 hours before scoring syncytium formation.
The purified enantiomers were taken up in DMSO at a concentration of 10 mg/mL. Dilutions were made in RPMI 1640 medium containing 10% fetal calf serum and 10 mM HEPES (cRPMI). H9 cells (ATCC, Rockville, Md.) infected with HIV-1RF, (NIH AIDS Repository, Rockville, Md.) and uninfected H9 cells were washed with cRPMI and resuspended in cRPMI at a density of 4×10^6 per mL. Uninfected cells (50 μL) were mixed with serial dilutions of the compounds (100 μL) and incubated at 37° C. for 30 min before adding and mixing 50 μL of infected H9 cells. The plates were incubated at 37° C. for 6 to 15 hours before scoring syncytium formation.

VLA-4 = target: T1, VLA-4 (Homo sapiens, UniProt P05556+P13612); experiment: Inhibition of VLA-4-mediated adhesion of enzyme-labeled PM1 cells to VCAM-1-coated substrata; format: cell-based; conditions: PM1 cells on immobilized VCAM-1; listed as Z(−) enantiomer of ajoene
T1 construct: host or cells: PM1 cells (VLA-4); COS7 cells secrete the VCAM/IgG ligand
Experimental: In addition, the invention discloses methods whereby the integrin-modulating activity of ajoene enantiomers may be assessed. One such method involves VLA-4-mediated adhesion of enzyme-labeled PM1 cells to VCAM-1-coated artificial substrata. Specifically, the cells were exposed to isolated ajoene enantiomers (or the vehicle thereof) and allowed to adhere to immobilized VCAM-1. Thereafter, the adherent cells were lyzed and, following addition of the substrate of the enzyme and incubation, the activity of the enzyme was measured spectrophotometrically. The value of this parameter, characterizing the number of the adherent cells, is inversely proportional to the integrin-modulating activity of the compound.
Integrin-modulating activity of the enantiomers was compared in a well-defined system of inhibition of VLA-4-mediated adhesion of enzyme-labeled PM1 cells (NIH AIDS Repository, Rockville, Md.) to VCAM-1-coated artificial substrata. In this experiment, enzyme-linked immunosorbent assay (ELISA) plates were coated with rabbit anti-human IgG (Fc-specific). Aliquots of 100 μL of supernatant from VCAM/IgG-secreting COS7 cells were added to each well, the plates incubated at 37° C. for 1 hour, and the wells washed with phosphate-buffered saline (PBS). […] The reaction was stopped with 0.5 M H2SO4, andthe optical density of the wells, read at 450 nm. […]

T1 sequence (P13612 34-1032): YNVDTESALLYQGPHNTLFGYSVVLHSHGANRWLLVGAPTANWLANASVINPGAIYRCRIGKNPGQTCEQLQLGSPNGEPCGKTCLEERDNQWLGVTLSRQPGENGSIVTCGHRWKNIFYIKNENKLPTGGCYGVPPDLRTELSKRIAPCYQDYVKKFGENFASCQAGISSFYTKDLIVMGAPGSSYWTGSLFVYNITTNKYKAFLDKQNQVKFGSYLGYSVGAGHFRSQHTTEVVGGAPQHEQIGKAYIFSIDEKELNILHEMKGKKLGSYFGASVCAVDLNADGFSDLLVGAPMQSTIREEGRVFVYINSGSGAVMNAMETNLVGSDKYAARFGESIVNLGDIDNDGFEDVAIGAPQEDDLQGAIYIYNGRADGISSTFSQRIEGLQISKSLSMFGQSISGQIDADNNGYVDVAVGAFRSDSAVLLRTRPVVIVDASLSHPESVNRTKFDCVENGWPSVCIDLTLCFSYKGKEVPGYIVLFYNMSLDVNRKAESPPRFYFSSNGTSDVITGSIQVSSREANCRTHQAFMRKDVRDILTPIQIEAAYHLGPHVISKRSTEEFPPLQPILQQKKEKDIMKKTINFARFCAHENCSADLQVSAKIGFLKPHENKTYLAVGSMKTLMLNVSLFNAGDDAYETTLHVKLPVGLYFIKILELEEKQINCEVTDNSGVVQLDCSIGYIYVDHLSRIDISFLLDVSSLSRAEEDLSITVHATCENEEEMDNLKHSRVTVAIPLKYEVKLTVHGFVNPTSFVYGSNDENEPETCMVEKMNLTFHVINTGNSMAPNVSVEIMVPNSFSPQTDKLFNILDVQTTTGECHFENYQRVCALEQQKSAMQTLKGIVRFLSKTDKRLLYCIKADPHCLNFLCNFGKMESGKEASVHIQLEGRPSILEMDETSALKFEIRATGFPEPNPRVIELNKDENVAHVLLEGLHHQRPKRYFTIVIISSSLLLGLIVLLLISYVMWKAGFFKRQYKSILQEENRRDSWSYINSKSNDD
T1 sequence (P05556 21-798): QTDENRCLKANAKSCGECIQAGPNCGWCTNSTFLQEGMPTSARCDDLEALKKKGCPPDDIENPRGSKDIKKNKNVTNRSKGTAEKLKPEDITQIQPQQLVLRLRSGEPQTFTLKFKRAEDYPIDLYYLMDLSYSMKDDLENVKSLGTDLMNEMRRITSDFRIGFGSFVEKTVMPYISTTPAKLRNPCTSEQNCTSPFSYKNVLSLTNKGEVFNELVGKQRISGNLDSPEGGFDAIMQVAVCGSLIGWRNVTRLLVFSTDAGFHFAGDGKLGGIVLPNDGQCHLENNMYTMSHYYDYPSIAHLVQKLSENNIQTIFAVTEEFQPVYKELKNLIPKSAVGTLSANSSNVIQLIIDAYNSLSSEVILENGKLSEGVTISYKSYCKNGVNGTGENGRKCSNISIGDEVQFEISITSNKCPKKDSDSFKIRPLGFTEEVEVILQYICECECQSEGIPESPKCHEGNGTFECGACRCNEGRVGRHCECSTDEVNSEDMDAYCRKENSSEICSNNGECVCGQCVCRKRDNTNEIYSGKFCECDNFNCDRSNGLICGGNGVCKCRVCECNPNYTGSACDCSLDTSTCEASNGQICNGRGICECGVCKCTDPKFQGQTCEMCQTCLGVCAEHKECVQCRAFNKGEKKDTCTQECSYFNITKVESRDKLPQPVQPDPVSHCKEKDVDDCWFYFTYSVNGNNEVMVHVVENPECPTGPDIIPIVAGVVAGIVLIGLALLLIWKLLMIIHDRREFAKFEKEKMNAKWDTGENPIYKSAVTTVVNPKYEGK

C=CCSS/C=C/C[S+]([O-])CC=C (racemic) [racemic E-ajoene, reference compound]
IC100 of syncytium formation [1]: 50 micromoles per liter

C=CCSS/C=C\C[S+]([O-])CC=C (stereo not drawn) [Z(+)-ajoene, Z(+)-4,5,9-trithiadodeca-1,6,11-triene-9-oxide]
IC100 of syncytium formation ([1]; listed as Z(+)): 50 micromoles per liter

C=CCSSC=CC[S+]([O-])CC=C (racemic) [unseparated 3:1 mixture of racemic Z- and E-ajoenes, 4,5,9-trithiadodeca-1,6,11-triene-9-oxide, reference compound]
IC100 of syncytium formation [1]: 50 micromoles per liter

C=CCSS/C=C\C[S+]([O-])CC=C (stereo not drawn) [Z(−)-ajoene, Z(−)-4,5,9-trithiadodeca-1,6,11-triene-9-oxide]
IC100 of syncytium formation [1]: 12.5 micromoles per liter
IC100 of syncytium formation ([1]; listed as Z(−) enantiomer): 12.5 micromoles per liter
adhesion-inhibiting activity relative to the other enantiomers / original 3:1 mixture (VLA-4): 4 fold
